Measured values reported in ChEMBL document CHEMBL1144762, “Diterpenoids from the roots of Suregada glomerulata” (J Nat Prod, 2008).
Values after ≈ are worked out from the molar mass of the structure shown.

Key:
Assay type in all cases: functional, cell-based
A2780 = assay: Cytotoxicity against human A2780 cells by MTT assay
[1] = Cytotoxicity against human Bel 7402 cells by MTT assay
HCT-8 = assay: Cytotoxicity against human HCT8 cells by MTT assay
[2] = Cytotoxicity against human BGC 823 cells by MTT assay
A549 = assay: Cytotoxicity against human A549 cells by MTT assay

Structure (SMILES) | IC50 (A2780) [µg/mL] | IC50 [1] [µg/mL] | IC50 (HCT-8) [µg/mL] | IC50 [2] [µg/mL] | IC50 (A549) [µg/mL]
CC1=C2C(=C[C@H]3[C@]4(C)CCC(=O)C(C)(C)[C@H]4CC[C@]34O[C@H]24)OC1=O | 8.22 (≈ 25 µM) | 7.53 (≈ 22.9 µM) | > 10 | > 10 | > 10
O=c1[nH]cc(F)c(=O)[nH]1 [FLUOROURACIL] | 0.65 (≈ 5 µM) | 0.54 (≈ 4.15 µM) | 0.54 (≈ 4.15 µM) | 0.7 (≈ 5.38 µM) | 0.18 (≈ 1.38 µM)
